Source: paper PMC6690930, “Characterization and its implication of a novel taste receptor detecting nutrients in the honey bee, Apis mellifera” (Scientific Reports, 2019)
One block for each molecule: values may come before it.

Tests used:
[1] = tested on: AmGr1; set-up: method as in earlier work; conditions: cited from earlier work
[2] = tested on: AmGr3; set-up: method as in PMID 28403157, PMID 29194737; conditions: cited from earlier work
[3] = molecular target: T1, AmGr10 (Apis mellifera, UniProt A0A7M6W8K8); experiment: Two-electrode voltage-clamp recording of Xenopus oocytes expressing AmGr10; assay type: cell-based; conditions: for Response of oocytes injected with AmGr10 cRNA (in words): holding potential -70 mV; for Threshold concentration on Xenopus oocytes expressed AmGr10: in vitro
T1 sequence (A0A7M6W8K8 entry or part of it): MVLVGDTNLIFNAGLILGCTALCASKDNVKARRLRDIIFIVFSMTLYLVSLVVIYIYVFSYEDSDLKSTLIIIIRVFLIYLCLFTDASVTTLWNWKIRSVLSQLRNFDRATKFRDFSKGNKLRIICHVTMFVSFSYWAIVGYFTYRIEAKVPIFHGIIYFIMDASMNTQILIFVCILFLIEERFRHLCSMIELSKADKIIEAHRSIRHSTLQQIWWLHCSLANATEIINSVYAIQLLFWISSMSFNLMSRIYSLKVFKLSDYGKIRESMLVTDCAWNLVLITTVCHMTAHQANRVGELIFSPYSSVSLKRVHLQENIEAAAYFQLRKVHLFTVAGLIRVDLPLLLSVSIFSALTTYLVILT
Description: Full-length coding sequences of the AmGr10 cDNA were first cloned into pGEM-T easy vector (Promega, Madison, USA) and then subcloned into the pSDTF vector. In vitro transcription of cRNA was performed by using the mMESSAGE mMACHINE SP6 Kit (Ambion, Austin, TX, USA) according to the manufacturer’s protocol. Plasmids were linearized with EcoR1, and capped cRNA was transcribed using SP6 RNA polymerase. The cRNA was purified, resuspended in nuclease-free water at a concentration of 1 μg/μl, and stored at −80 °C in aliquots. Mature oocytes were freed from the follicle cells by treatment with collagenase A for 1 h at room temperature and incubated for 24 hours in modified Barth’s solution[16]. […] The oocytes were then incubated at 17 °C for 3~5 days in Barth’s solution. The two-electrode voltage-clamp technique was employed to observe tastant-induced currents at a holding potential of −70 mV.

[4] = molecular target: T1, AmGr10; experiment: Intracellular calcium assay (Fluo-4) in HEK 293 cells expressing AmGr10; assay type: cell-based; conditions: for Response of HEK 293 cells expressing AmGr10 (in words): 100 mM of amino acid
Description: (§1) The expression vector was synthesized by inserting the cDNA of AmGr10 (Apis mellifera Gustatory receptor 10) into the multiple cloning site of the pcDNA3.1 vector using the restriction enzymes EcoRI and NotI (Koscamco, Anyang, Korea). Template pDNA for pcDNA3.1-AmGr10 and primers were then mixed with kit solutions. The total PCR volume and conditions were followed as described previously. 2.5 µg of the vector with AmGr10 was transfected into the HEK 293 cells using Lipofectamine 2000 (Invitrogen, CA, USA). The transfection method was according to the manufacturer’s manual. In brief, the Opti-MEM (Invitrogen, CA, USA) was mixed with Lipofectamine at the rate of 6 μL in 125 μL Opti-MEM. It was incubated for 5 min at room temperature. The plasmid DNA (2.5 μg) also was blended with 125 μL Opti-MEM media. These were combined and incubated for 20 min at room temperature. The solution was applied on the HEK cells. After 24 h, the transfected cells were selected using 200 µg/ml zeocin.
For calcium signaling assays, HEK 293 cells expressing AmGr10 were cultured for more than 3 days, and the Fluo-4 AM dye mix solution (Molecular probes) was loaded into the cell in 96-well microplate. […] To normalize the response, the changes in the fluorescence ratio were divided by the maximal fluorescence changes induced by each compound.

[5] = tested on: hT1R1/hT1R3; conditions: cited from earlier work
[6] = tested on: human; set-up: method as in PMID 24214976; conditions: at high concentrations; cited from earlier work
[7] = tested on: non-transfected HEK 293 cells; experiment: Calcium imaging of non-transfected HEK 293 cells (control); assay type: cell-based; conditions: Fig. S6
Description: Test chemicals were dissolved in HBSS at various concentrations.

[8] = tested on: sensilla chaetica on the galea; experiment: Tip recording from galeal sensilla chaetica of honey bee; assay type: in vivo, Apis mellifera; conditions: for Responses during 1 sec of stimulation: sensilla chaetica on the galea; for Threshold concentration necessary for tip recording: honey bee mouthparts in vivo; for Response of sensilla chaetica on the galea (in words): tip recording
Text: Tip recording® experiments were amplified and recorded from the left galea of the proboscis in honey bee mouthparts with IDAC4 with Autospikes software (Syntech, Hilversum, The Netherlands). Bees were immobilized by cooling on ice, restrained in a pipette tip, holding head and appendages in place for electrophysiological measurements. Recordings from gustatory sensilla in galea were made from so-called sensilla chaetica[81] at the tip of galea devoid of olfactory sensilla. These sensilla can be easily identified by their external morphology. A grounded reference electrode filled with 1 mM KCl was inserted into the compound eye. L-glutamate and L-aspartate were selected for tip recording testing and are common amino acids in plant pollen. For stimulation, 1 mM KCl with […] concentrations of 100 mM and 1 mM KCl alone were used. Stimuli were applied for approximately 5 s with an inter-stimulus interval of 3 min. […] These sensilla were excluded from the data analysis. The responses of galeal sensilla to all tested solutions were quantified by counting the number of spikes after stimulus onset.

[9] = molecular target: T1, AmGr10; experiment: Calcium imaging of HEK 293 cells expressing AmGr10; assay type: cell-based; conditions: for Real time calcium imaging response: 50 μm amino acid alone, Videos S1, S2; for Real time calcium imaging response with IMP: 50 μm amino acid with 2 μm of IMP, Videos S3, S4
Description: as §1
Transfected cell lines were subsequently cultured on dishes suitable for confocal microscopy (SPL, Pocheon, Korea). Before each experiment, the culture medium was removed and washed once in Hansk’s balanced salt solution (assay buffer). Transfected cells were loaded with calcium dye Fluo-4 AM (Molecular probes, USA), 2 μM in assay buffer to the dish, after which the cells were incubated in the dark for 90 min at room temperature. After incubation, 1X HBSS buffer was added to the confocal dish, which was then directly placed in the LSM700 inverted confocal microscope for observation (Zeiss, Oberkochen, Germany). Images were captured with a maximum of 100 frames per two-second interval. Test chemicals were dissolved in HBSS at various concentrations. Calcium influx into the transfected cells upon ligand binding was monitored and analyzed with ZEN software (Zeiss, Oberkochen, Germany). For data analysis, response refers to the number of cells responding in a field of about 300 transfected cells. Cells were counted as responders if the F ratio increased above 0.27 after addition of tastants.

Compound: O=C(CO)[C@@H](O)[C@H](O)[C@H](O)CO [fructose]
Response of AmGr1 [1]: not
Response of AmGr3 [2]: responds only

Compound: N=C(N)NCCC[C@H](N)C(=O)O [L-arginine, L-Arginine]
Response of oocytes injected with AmGr10 cRNA (in words) [3]: responsive
Response of HEK 293 cells expressing AmGr10 (in words) [4]: significant responses
Response of hT1R1/hT1R3 [5]: slight but significant responses
Umami taste in human sensory tests [6]: weak umami taste

Compound: N[C@@H](Cc1c[nH]cn1)C(=O)O [L-histidine, L-Histidine]
Response of hT1R1/hT1R3 [5]: slight but significant responses

Compound: CNc1ccc2oc(C[C@@H]3OC4(CC[C@@H]3C)O[C@H](C(C)C(=O)c3ccc[nH]3)[C@H](C)C[C@H]4C)nc2c1C(=O)O (stereo partly drawn) [calcium ionophore]
Calcium influx in non-transfected HEK 293 cells [7]: activated

Compound: N[C@@H](CCC(=O)O)C(=O)[O-].[Na+] [MSG, L-Glutamic acid monosodium salt]
Response to MSG of AmGr10-transfected HEK 293 cells vs non-transfected ([4]; concentration steps, Fig. S5): significantly increased
Sensitivity of HEK 293 cells expressing hT1R1/hT1R3 ([5]; unlike non-transfected HEK 293 cells): significantly sensitive

Compound: NCCCC[C@H](N)C(=O)O [L-lysine, L-Lysine]
Response of oocytes injected with AmGr10 cRNA (in words) [3]: responsive
Response of HEK 293 cells expressing AmGr10 (in words) [4]: significant responses

Compound: OC[C@H]1O[C@H](O[C@H]2[C@H](O)[C@@H](O)C(O)O[C@@H]2CO)[C@H](O)[C@@H](O)[C@@H]1O (mixture of isomers) [maltose]
Response of AmGr1 [1]: responded

Response of oocytes injected with AmGr10 cRNA (in words) [3]: responsive
Response of HEK 293 cells expressing AmGr10 (in words) [4]: significant responses
Compound: NC(=O)CC[C@H](N)C(=O)O [L-glutamine, L-Glutamine]
Response of hT1R1/hT1R3 [5]: slight but significant responses
Umami taste in human sensory tests [6]: weak umami taste

Compound: Nc1nc2c(ncn2[C@@H]2O[C@H](COP(=O)(O)O)[C@@H](O)[C@H]2O)c(=O)[nH]1 [GMP, Guanosine 5′-monophosphate]
Effect of GMP on responses to non-amino acid stimulus sucrose ([8]; 2 mM GMP): no significant effect
Effect of GMP on nerve-firing rates to amino acids ([8]; 2 mM GMP, 50 mM amino acids): significantly enhanced

Response of oocytes injected with AmGr10 cRNA (in words) [3]: responsive
Threshold concentration on Xenopus oocytes expressed AmGr10 [3]: ~ 10 mM
Response of HEK 293 cells expressing AmGr10 (in words) [4]: highest responses
Real time calcium imaging response [9]: clearly showed calcium responses
Real time calcium imaging response with IMP [9]: clearly showed enhanced response
Compound: N[C@@H](CC(=O)O)C(=O)O [L-aspartate, L-Aspartic acid]
Responses during 1 sec of stimulation ([8]; 100 mM): 22 spikes
Responses during 1 sec of stimulation ([8]; 200 mM): 51 spikes
Responses during 1 sec of stimulation ([8]; concentration of 50 mM): 6 spikes
Threshold concentration necessary for tip recording [8]: ~ 50 mM
Response of sensilla chaetica on the galea (in words) [8]: responded

Compound: OC[C@H]1O[C@H](O[C@H]2O[C@H](CO)[C@@H](O)[C@H](O)[C@H]2O)[C@H](O)[C@@H](O)[C@@H]1O [trehalose]
Response of AmGr1 [1]: responded

Compound: OC[C@H]1OC(O)[C@H](O)[C@@H](O)[C@@H]1O (stereo partly drawn) [glucose]
Response of AmGr1 [1]: responded

Compound: NC(CCP(=O)(O)O)C(=O)O [L-AP4]
AmGr10 response in presence of purine nucleotides ([9]; amino acids 50 mM, IMP 2 mM): greatly enhanced

Response of oocytes injected with AmGr10 cRNA (in words) [3]: responsive
Response of HEK 293 cells expressing AmGr10 (in words) [4]: significant responses
Compound: NC(=O)C[C@H](N)C(=O)O [L-asparagine, L-Asparagine]
Response of hT1R1/hT1R3 [5]: slight but significant responses
Umami taste in human sensory tests [6]: weak umami taste

Compound: Cn1c(=O)c2c(ncn2C)n(C)c1=O [caffeine]
Response of oocytes injected with AmGr10 cRNA (in words) [3]: not

Compound: N[C@@H](CO)C(=O)O [L-serine, L-Serine]
Response of hT1R1/hT1R3 [5]: slight but significant responses

Compound: OC[C@H]1O[C@@](CO)(O[C@H]2O[C@H](CO)[C@@H](O)[C@H](O)[C@H]2O)[C@@H](O)[C@@H]1O [sucrose, Sucrose]
Response of sensilla chaetica on the galea (in words) [8]: sensitive
Response of AmGr1 [1]: responded

Compound: N[C@@H](CCC(=O)O)C(=O)O [L-glutamate, L-Glutamic acid]
Responses during 1 sec of stimulation ([8]; 100 mM): 27 spikes
Responses during 1 sec of stimulation ([8]; 200 mM): 55 spikes
Responses during 1 sec of stimulation ([8]; concentration of 50 mM): 15 spikes
Threshold concentration necessary for tip recording [8]: ~ 50 mM
Response of sensilla chaetica on the galea (in words) [8]: responded
Response of oocytes injected with AmGr10 cRNA (in words) [3]: responsive
Threshold concentration on Xenopus oocytes expressed AmGr10 [3]: ~ 10 mM
Response of HEK 293 cells expressing AmGr10 (in words) [4]: highest responses
Real time calcium imaging response [9]: clearly showed calcium responses
Real time calcium imaging response with IMP [9]: clearly showed enhanced response

Compound: C[C@H](N)C(=O)O [L-Ala]
Response of hT1R1/hT1R3 [5]: slight but significant responses
